# Experiments:
# [1] = system: ERα transcriptional activity in T47D breast cancer cells; experiment: Cell based assay #2: ERE-luciferase reporter, E2-induced ERα activation by Ubc9 C93S; settings: Ubc9 C93S (SUMO-independent), E2 1 μM
# Protocol: T47D cells (5×10^5) were plated in 6-well plates for 24 hours. The cells were washed twice in PBS followed by the addition of phenol red free DMEM containing 5% charcoal-stripped FBS for 48 hrs before transfection. The cells were transfected with 1 μg of each of the indicated plasmids (with a total of 2.5 μg DNA) using lipofectamine 2000 (Life Technology, USA). The cells were induced with 1 μM of E2 4 hours after transfections, harvested after an additional 40 hrs and assayed for luciferase activity following the manufacturer's instructions. Each set of experiments was performed in triplicate and repeated a least three times.
# Ubc9 = target: T1, Ubc9 (Homo sapiens, UniProt P63279); experiment: GST capture (pull-down) assay of binding to Ubc9; settings: in vitro translated full length protein
# T1 construct: made in house; host or cells: E. coli
# T1 sequence (P63279 whole entry, species assumed): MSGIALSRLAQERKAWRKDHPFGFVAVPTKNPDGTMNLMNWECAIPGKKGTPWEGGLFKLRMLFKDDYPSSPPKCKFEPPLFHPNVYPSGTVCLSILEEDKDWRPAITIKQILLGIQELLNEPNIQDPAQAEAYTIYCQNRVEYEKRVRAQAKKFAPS
# From the text: GST-Ubc9 and GST-ERα (337-379) were expressed and purified from E. coli as described previously (Wang H, Shao N, Ding O M, Cui J, Reddy E S P, Rao V N: BRCA1 proteins are transported to the nucleus in the absence of serum and splice variants BRCA1a, BRCA1b are tyrosine phosphoprotein that associate with E2F, cyclins and cyclin dependent kinases. Oncogene 15, 143-157: 1997.). For in vitro protein binding assay 35 S-Methionine-labeled in vitro translated full length BRCA1, BRCA1a (Chai Y L, Cui J, Chipitsyna G, Liao B, Lui S, Aysola K et al.: C-Fos oncogene regulator Elk-1 interacts with BRCA1 splice variants BRCA 1a/1b and enhances BRCA1a/1b mediated growth suppression in breast cancer cells. Oncogene 20: 1357-1367, 2001.), BRCA1b, BRCA1 Mut#1, BRCA1 Mut#4, BRCA1 1-182, BRCA1 1-182 Mut#1 and BRCA1 1-182 Mut 4 proteins were diluted in binding buffer (20 mM Tris-HCl (pH7.5), 150 mM NaCl, 0.1% Tween 20). The proteins were precleared with GSH beads for 30 min and then incubated with GST or various GST-ER (337-379) proteins beads for 2 hours at 4° C. The beads were then washed three times with binding buffer followed by elution of the bound proteins with SDS sample buffer and loaded on a 15% SDS-PAGE. The gels were fixed, treated with enhance, dried and exposed 9 to X-ray films) and scanned using a Fuji BioImaging analyzer. […]
substance,measurement,setting,value
BRCA1 Mutant #1: BRCA1 point mutant 1; apparently SUMO acceptor site mutation lysine (K) 109 to arginine (R),inhibition of E2-mediated ERα transcription activation by Ubc9/C93S,[1],"unlike their respective Mut #1 and Mut#4, inhibit"
BRCA1 Mutant #4: full length BRCA1 with RING domain cancer-predisposing mutation C61G,inhibition of E2-mediated ERα transcription activation by Ubc9/C93S,[1],"unlike their respective Mut #1 and Mut#4, inhibit"
same,binding to Ubc9,Ubc9,did not observe any significant binding
BRCA1: full-length product of the BRCA1 (breast cancer 1) tumor suppressor gene,inhibition of E2-mediated ERα transcription activation by Ubc9/C93S,[1],inhibit E2-mediated ERα transcription activation by Ubc9/C93S
